ChEMBL document CHEMBL5113439, “Rationally Designed Amanitins Achieve Enhanced Cytotoxicity” (J Med Chem, 2022)
pIC50: −log10 of the molar value. Numbered stars: 1 amine (or outer) side, 2 acyl side, 3 side chain; on linkers, the order of the positions; unused ones are H or OH. Bridge positions count the residues as written; N and C are the ends. Square brackets hold non-standard residues; d marks the D form. Peptide text beside a SMILES is read from it. Trp(2-yl) = O=C([C@H](Cc1c([*:3])[nH]c2ccccc12)N[*:1])[*:2]; X4 = O=C([C@H](Cc1c([*:3])[nH]c2ccc(O)cc12)N[*:1])[*:2]; Ile(4R-OH,5-OH) = C[C@H]([C@H](N)C(=O)O)[C@@H](O)CO; X5 = C[C@@H](S[*:3])[C@H](N[*:1])C(=O)[*:2]; X2 = CC[C@H](C)[C@@H](CNNC(=O)[*:2])N[*:1]; X3 = C[C@H](S[*:3])[C@H](N[*:1])C(=O)[*:2]; X1 = CS[C@H](C)[C@H](N[*:1])C(=O)[*:2]; Nva(3-Et) = CCC(CC)[C@H](N)C(=O)O; αMeI = CC[C@H](C)[C@](C)(N)C(=O)O; Hyp = O=C(O)[C@@H]1C[C@@H](O)CN1; Pen = CC(C)(S)[C@H](N)C(=O)O; azaGly = NNC(=O)O

Key:
[1] = Inhibition of RNA polymerase 2 in human HeLa cells nuclear extract using DNA template as substrate incubated for 60 mins by TRA; assay type: subcellular, Nucleus
[2] = Cytotoxicity against chinese hamster CHO cells assessed as reduction in cell viability incubated for 72 hrs by MTT assay; assay type: toxicity, cell-based, Cricetulus griseus
HeLa = experiment: Cytotoxicity against human HeLa cells assessed as reduction in cell viability incubated for 72 hrs by MTT assay; assay type: functional, cell-based
HepG2 = experiment: Cytotoxicity against human HepG2 cells assessed as reduction in cell viability incubated for 72 hrs by MTT assay; assay type: functional, cell-based; conditions: HepG2, 72 h
[3] = Cytotoxicity against human HEK293 cells assessed as reduction in cell viability incubated for 72 hrs by MTT assay; assay type: toxicity, cell-based

Row | SMILES | pIC50 [1] | IC50 at 72 h [2] [nM] | pIC50 (HeLa) | pIC50 (HepG2) | IC50 at 72 h [3] [nM]
1 | CC[C@H](C)[C@@H]1NC(=O)CNC(=O)[C@@H]2Cc3c([nH]c4cc(O)ccc34)[S+]([O-])C[C@H](NC(=O)CNC1=O)C(=O)N[C@@H](CC(N)=O)C(=O)N1C[C@H](O)C[C@H]1C(=O)N[C@@H]([C@@H](C)[C@@H](O)CO)C(=O)N2 (stereo partly drawn) | 9.00 | 1000 | 6.00 | 6.25 | 1000
2 | C[C@H]([C@@H]1NC(=O)[C@@H]2C[C@@H](O)CN2C(=O)[C@H](CC(N)=O)NC(=O)[C@@H]2CSc3[nH]c4ccccc4c3C[C@H](NC1=O)C(=O)NCC(=O)N[C@H](C1CCCC1)C(=O)NCC(=O)N2)[C@@H](O)CO | 7.33 | 6900 |  |  | 
3 | CC[C@H](C)[C@@H]1NC(=O)CNC(=O)[C@@H]2Cc3c([nH]c4ccccc34)SC[C@H](NC(=O)CNC1=O)C(=O)N[C@@H](CC(N)=O)C(=O)N1C[C@H](O)C[C@H]1C(=O)N[C@@H]([C@@H](C)[C@@H](O)CO)C(=O)N2 (cyclo(CN[Hyp][Ile(4R-OH,5-OH)][Trp(2-yl)]GIG); thioether 1-5) | 8.02 | 1300 |  |  | 
4 | CO[C@H](C)[C@@H]1NC(=O)CNC(=O)[C@@H]2Cc3c([nH]c4ccccc34)SC[C@H](NC(=O)CNC1=O)C(=O)N[C@@H](CC(N)=O)C(=O)N1C[C@H](O)C[C@H]1C(=O)N[C@@H]([C@@H](C)[C@@H](O)CO)C(=O)N2 (cyclo(CN[Hyp][Ile(4R-OH,5-OH)][Trp(2-yl)]GT(Me)G); thioether 1-5) | 7.38 | > 20000 |  |  | 
5 | CCC(CC)[C@@H]1NC(=O)CNC(=O)[C@@H]2Cc3c([nH]c4ccccc34)SC[C@H](NC(=O)CNC1=O)C(=O)N[C@@H](CC(N)=O)C(=O)N1C[C@H](O)C[C@H]1C(=O)N[C@@H]([C@@H](C)[C@@H](O)CO)C(=O)N2 (cyclo(CN[Hyp][Ile(4R-OH,5-OH)][Trp(2-yl)]G[Nva(3-Et)]G); thioether 1-5) | 8.07 | 780 |  |  | 370
6 | CS[C@H](C)[C@@H]1NC(=O)CNC(=O)[C@@H]2Cc3c([nH]c4ccccc34)SC[C@H](NC(=O)CNC1=O)C(=O)N[C@@H](CC(N)=O)C(=O)N1C[C@H](O)C[C@H]1C(=O)N[C@@H]([C@@H](C)[C@@H](O)CO)C(=O)N2 (cyclo(CN[Hyp][Ile(4R-OH,5-OH)][Trp(2-yl)]G[X1]G); thioether 1-5) | 8.07 | 5600 | 5.40 | < 5.00 | 1500
7 | CC[C@H](C)[C@H]1CNNC(=O)N[C@H]2CSc3[nH]c4ccccc4c3C[C@H](NC(=O)[C@H]([C@@H](C)[C@@H](O)CO)NC(=O)[C@@H]3C[C@@H](O)CN3C(=O)[C@H](CC(N)=O)NC2=O)C(=O)NCC(=O)N1 (cyclo(CN[Hyp][Ile(4R-OH,5-OH)][Trp(2-yl)]G[X2]); thioether 1-5) | 8.33 | 380 | 6.08 | 5.57 | 460
8 | CC[C@H](C)[C@]1(C)NC(=O)NNC(=O)[C@@H]2Cc3c([nH]c4ccccc34)SC[C@H](NC(=O)CNC1=O)C(=O)N[C@@H](CC(N)=O)C(=O)N1C[C@H](O)C[C@H]1C(=O)N[C@@H]([C@@H](C)[C@@H](O)CO)C(=O)N2 (cyclo(CN[Hyp][Ile(4R-OH,5-OH)][Trp(2-yl)][azaGly][αMeI]G); thioether 1-5) | 8.28 | 2400 |  |  | 450
9 | CCC(CC)[C@@H]1NC(=O)CNC(=O)[C@@H]2Cc3c([nH]c4ccc(O)cc34)SC[C@H](NC(=O)CNC1=O)C(=O)N[C@@H](CC(N)=O)C(=O)N1C[C@H](O)C[C@H]1C(=O)N[C@@H]([C@@H](C)[C@@H](O)CO)C(=O)N2 (cyclo(CN[Hyp][Ile(4R-OH,5-OH)][X4]G[Nva(3-Et)]G); thioether 1-5) | 7.75 | 2500 |  |  | 320
10 | CC[C@H](C)[C@@H]1NC(=O)CNC(=O)[C@@H]2Cc3c([nH]c4ccccc34)SC(C)(C)[C@H](NC(=O)CNC1=O)C(=O)N[C@@H](CC(N)=O)C(=O)N1C[C@H](O)C[C@H]1C(=O)N[C@@H]([C@@H](C)[C@@H](O)CO)C(=O)N2 (cyclo(GIG[Pen]N[Hyp][Ile(4R-OH,5-OH)][Trp(2-yl)]); thioether 4-8) | 7.75 | 9300 |  |  | 
11 | CC[C@H](C)[C@@H]1NC(=O)CNC(=O)[C@@H]2Cc3c([nH]c4ccccc34)S[C@@H](C)[C@H](NC(=O)CNC1=O)C(=O)N[C@@H](CC(N)=O)C(=O)N1C[C@H](O)C[C@H]1C(=O)N[C@@H]([C@@H](C)[C@@H](O)CO)C(=O)N2 (cyclo(GIG[X3]N[Hyp][Ile(4R-OH,5-OH)][Trp(2-yl)]); thioether 4-8) | 8.00 | 1300 |  |  | 510
12 | CC[C@H](C)[C@@H]1NC(=O)CNC(=O)[C@@H]2Cc3c([nH]c4ccc(O)cc34)S[C@@H](C)[C@H](NC(=O)CNC1=O)C(=O)N[C@@H](CC(N)=O)C(=O)N1C[C@H](O)C[C@H]1C(=O)N[C@@H]([C@@H](C)[C@@H](O)CO)C(=O)N2 (cyclo(GIG[X3]N[Hyp][Ile(4R-OH,5-OH)][X4]); thioether 4-8) | 7.83 | 6900 |  |  | 880
13 | CC[C@H](C)[C@@H]1NC(=O)CNC(=O)[C@@H]2Cc3c([nH]c4ccccc34)S[C@H](C)[C@H](NC(=O)CNC1=O)C(=O)N[C@@H](CC(N)=O)C(=O)N1C[C@H](O)C[C@H]1C(=O)N[C@@H]([C@@H](C)[C@@H](O)CO)C(=O)N2 (cyclo(GIG[X5]N[Hyp][Ile(4R-OH,5-OH)][Trp(2-yl)]); thioether 4-8) | < 6.89 | > 20000 |  |  | 
14 | CCC(CC)[C@@H]1NC(=O)CNC(=O)[C@@H]2Cc3c([nH]c4ccccc34)S[C@@H](C)[C@H](NC(=O)CNC1=O)C(=O)N[C@@H](CC(N)=O)C(=O)N1C[C@H](O)C[C@H]1C(=O)N[C@@H]([C@@H](C)[C@@H](O)CO)C(=O)N2 (cyclo(G[Nva(3-Et)]G[X3]N[Hyp][Ile(4R-OH,5-OH)][Trp(2-yl)]); thioether 4-8) | 8.02 | 610 | 6.22 | 6.96 | 200
15 | CCC(CC)[C@@H]1NC(=O)CNC(=O)[C@@H]2Cc3c([nH]c4ccc(O)cc34)S[C@@H](C)[C@H](NC(=O)CNC1=O)C(=O)N[C@@H](CC(N)=O)C(=O)N1C[C@H](O)C[C@H]1C(=O)N[C@@H]([C@@H](C)[C@@H](O)CO)C(=O)N2 (cyclo(G[Nva(3-Et)]G[X3]N[Hyp][Ile(4R-OH,5-OH)][X4]); thioether 4-8) | 7.86 | 2400 |  |  | 510
